# Experimental data published in patent US12435059B2, “AMP-activated protein kinase inhibitors and methods of making and using the same” (The Regents of the University of Colorado, priority 2019, dated 2025).
# How the values were obtained:
# Test in all cases: biochemical
# Assay type in all cases: binding
# [1] = biological target: 468 kinases (Homo sapiens, UniProt Q9H422); settings: HIPK3; read-out: % Inhibition @ 100 nM
# [2] = biological target: 468 kinases (Homo sapiens, UniProt Q8IVW4); settings: CDKL3; read-out: % Inhibition @ 100 nM
# [3] = biological target: 468 kinases (Homo sapiens, UniProt O75716); settings: STK16; read-out: % Inhibition @ 100 nM
# 468 kinases (Homo sapiens, UniProt O75716), sequence (O75716 2-305 limits assumed): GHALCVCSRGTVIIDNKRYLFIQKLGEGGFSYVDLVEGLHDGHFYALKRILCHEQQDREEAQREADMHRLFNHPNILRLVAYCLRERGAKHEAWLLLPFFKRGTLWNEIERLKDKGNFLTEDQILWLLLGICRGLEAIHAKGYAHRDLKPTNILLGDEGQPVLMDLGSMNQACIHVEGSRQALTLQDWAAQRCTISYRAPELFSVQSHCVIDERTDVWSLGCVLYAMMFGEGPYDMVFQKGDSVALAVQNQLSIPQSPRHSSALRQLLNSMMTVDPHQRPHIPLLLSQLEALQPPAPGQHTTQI
# [4] = biological target: 468 kinases (Homo sapiens, UniProt P42679); settings: CTK; read-out: % Inhibition @ 100 nM
# [5] = biological target: 468 kinases (Homo sapiens, UniProt Q02156); settings: PRKCE; read-out: % Inhibition @ 100 nM
# [6] = biological target: 468 kinases (Homo sapiens, UniProt O75747); settings: PIK3C2G; read-out: % Inhibition @ 100 nM
# [7] = biological target: 468 kinases (Homo sapiens, UniProt P57078); settings: RIPK4; read-out: % Inhibition @ 100 nM
# [8] = biological target: 468 kinases (Homo sapiens, UniProt Q92772); settings: CDKL2; read-out: % Inhibition @ 100 nM
# [9] = biological target: 468 kinases (Homo sapiens, UniProt P46734); settings: MEK3; read-out: % Inhibition @ 100 nM
# [10] = biological target: 468 kinases (Homo sapiens, UniProt P07949); settings: RET; read-out: % Inhibition @ 100 nM
# 468 kinases (Homo sapiens, UniProt P07949), sequence (P07949 29-1114 limits assumed): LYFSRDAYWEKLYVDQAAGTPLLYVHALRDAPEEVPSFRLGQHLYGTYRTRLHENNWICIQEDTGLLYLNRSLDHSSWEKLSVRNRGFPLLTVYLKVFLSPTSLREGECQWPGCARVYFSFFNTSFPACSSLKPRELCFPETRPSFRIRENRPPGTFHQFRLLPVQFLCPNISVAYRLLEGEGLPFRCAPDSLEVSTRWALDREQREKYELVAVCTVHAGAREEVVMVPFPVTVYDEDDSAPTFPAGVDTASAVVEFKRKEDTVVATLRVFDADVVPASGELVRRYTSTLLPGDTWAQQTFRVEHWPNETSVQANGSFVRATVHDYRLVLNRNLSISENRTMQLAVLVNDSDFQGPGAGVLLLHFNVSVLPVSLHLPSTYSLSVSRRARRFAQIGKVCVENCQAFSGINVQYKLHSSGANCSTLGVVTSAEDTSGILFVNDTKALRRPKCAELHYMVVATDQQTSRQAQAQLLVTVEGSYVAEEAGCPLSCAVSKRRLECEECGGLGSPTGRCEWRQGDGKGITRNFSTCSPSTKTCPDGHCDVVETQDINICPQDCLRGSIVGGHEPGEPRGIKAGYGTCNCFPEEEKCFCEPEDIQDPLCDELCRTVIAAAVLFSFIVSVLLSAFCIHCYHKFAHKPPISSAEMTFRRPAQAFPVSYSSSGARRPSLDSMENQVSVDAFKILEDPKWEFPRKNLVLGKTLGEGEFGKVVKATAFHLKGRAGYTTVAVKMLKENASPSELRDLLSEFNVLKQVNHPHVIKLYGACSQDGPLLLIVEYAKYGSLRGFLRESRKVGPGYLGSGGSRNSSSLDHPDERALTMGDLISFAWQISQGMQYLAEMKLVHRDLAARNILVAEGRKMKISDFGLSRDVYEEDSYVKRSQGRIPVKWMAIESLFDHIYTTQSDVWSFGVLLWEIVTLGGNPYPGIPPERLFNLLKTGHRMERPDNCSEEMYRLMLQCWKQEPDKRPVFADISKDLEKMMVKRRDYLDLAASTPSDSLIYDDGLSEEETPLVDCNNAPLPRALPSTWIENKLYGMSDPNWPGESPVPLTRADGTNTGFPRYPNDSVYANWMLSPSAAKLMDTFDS
# [11] = biological target: 468 kinases (Homo sapiens, UniProt Q9H4B4); settings: PLK3; read-out: % Inhibition @ 100 nM
# [12] = biological target: 468 kinases (Homo sapiens, UniProt Q92918); settings: HPK1; read-out: % Inhibition @ 100 nM
# [13] = biological target: 468 kinases (Homo sapiens, UniProt P00533, G719S); settings: EGFR(G719S); read-out: % Inhibition @ 100 nM
# [14] = biological target: 468 kinases (Homo sapiens, UniProt Q99640); settings: PKMYT1; read-out: % Inhibition @ 100 nM
# [15] = biological target: 468 kinases (Homo sapiens, UniProt P29317); settings: EPHA2; read-out: % Inhibition @ 100 nM
# 468 kinases (Homo sapiens, UniProt P29317), sequence (P29317 24-976 limits assumed): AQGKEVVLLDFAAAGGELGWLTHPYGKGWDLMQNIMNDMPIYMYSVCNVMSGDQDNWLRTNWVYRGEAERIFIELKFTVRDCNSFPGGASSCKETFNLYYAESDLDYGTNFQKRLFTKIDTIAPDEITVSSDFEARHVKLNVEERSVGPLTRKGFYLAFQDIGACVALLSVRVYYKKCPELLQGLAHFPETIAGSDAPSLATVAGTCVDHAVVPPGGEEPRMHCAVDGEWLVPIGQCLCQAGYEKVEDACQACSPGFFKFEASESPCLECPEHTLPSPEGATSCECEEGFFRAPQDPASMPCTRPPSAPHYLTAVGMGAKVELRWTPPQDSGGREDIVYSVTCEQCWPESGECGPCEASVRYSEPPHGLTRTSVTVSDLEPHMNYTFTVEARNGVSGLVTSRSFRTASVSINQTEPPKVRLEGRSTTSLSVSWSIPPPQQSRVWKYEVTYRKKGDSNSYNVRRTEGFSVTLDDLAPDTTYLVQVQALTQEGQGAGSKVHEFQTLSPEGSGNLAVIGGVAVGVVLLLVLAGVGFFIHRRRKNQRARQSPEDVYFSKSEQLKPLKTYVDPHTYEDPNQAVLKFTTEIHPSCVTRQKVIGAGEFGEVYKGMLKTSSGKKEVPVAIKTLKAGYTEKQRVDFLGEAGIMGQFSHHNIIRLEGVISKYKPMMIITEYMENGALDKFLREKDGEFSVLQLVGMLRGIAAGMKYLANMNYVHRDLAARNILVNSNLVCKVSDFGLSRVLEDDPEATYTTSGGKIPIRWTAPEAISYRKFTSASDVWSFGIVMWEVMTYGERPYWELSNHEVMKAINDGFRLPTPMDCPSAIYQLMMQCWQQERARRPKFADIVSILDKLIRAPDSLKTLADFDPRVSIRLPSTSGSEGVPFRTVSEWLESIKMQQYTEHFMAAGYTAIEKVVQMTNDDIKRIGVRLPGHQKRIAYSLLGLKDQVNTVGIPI
# [16] = biological target: 468 kinases (Homo sapiens, UniProt Q02763); settings: TIE2; read-out: % Inhibition @ 100 nM
# [17] = biological target: 468 kinases (Homo sapiens, UniProt Q13546); settings: RIPK1; read-out: % Inhibition @ 100 nM
# [18] = biological target: 468 kinases (Homo sapiens, UniProt O96013); settings: PAK4; read-out: % Inhibition @ 100 nM
# [19] = biological target: 468 kinases (Homo sapiens, UniProt O15530); settings: PDPK1; read-out: % Inhibition @ 100 nM
# [20] = biological target: 468 kinases (Homo sapiens, UniProt P42680); settings: TEC; read-out: % Inhibition @ 100 nM
# [21] = biological target: 468 kinases (Homo sapiens, UniProt O14733); settings: MKK7; read-out: % Inhibition @ 100 nM
# [22] = biological target: 468 kinases (Homo sapiens, UniProt Q99755); settings: PIP5K1A; read-out: % Inhibition @ 100 nM
# [23] = biological target: 468 kinases (Homo sapiens, UniProt P30291); settings: WEE1; read-out: % Inhibition @ 100 nM
# [24] = biological target: 468 kinases (Homo sapiens, UniProt P42336, E545K); settings: PIK3CA(E545K); read-out: % Inhibition @ 100 nM
# [25] = biological target: 468 kinases (Homo sapiens, UniProt Q8TF76); settings: HASPIN; read-out: % Inhibition @ 100 nM
# [26] = biological target: 468 kinases (Homo sapiens, UniProt O00329); settings: PIK3CD; read-out: % Inhibition @ 100 nM
# [27] = biological target: 468 kinases (Homo sapiens, UniProt P53667); settings: LIMK1; read-out: % Inhibition @ 100 nM
# [28] = biological target: 468 kinases (Homo sapiens, UniProt Q8TD19); settings: NEK9; read-out: % Inhibition @ 100 nM
# [29] = biological target: 468 kinases (Homo sapiens, UniProt Q13164); settings: ERK5; read-out: % Inhibition @ 100 nM
# 468 kinases (Homo sapiens, UniProt Q13164), sequence (Q13164 2-816 limits assumed): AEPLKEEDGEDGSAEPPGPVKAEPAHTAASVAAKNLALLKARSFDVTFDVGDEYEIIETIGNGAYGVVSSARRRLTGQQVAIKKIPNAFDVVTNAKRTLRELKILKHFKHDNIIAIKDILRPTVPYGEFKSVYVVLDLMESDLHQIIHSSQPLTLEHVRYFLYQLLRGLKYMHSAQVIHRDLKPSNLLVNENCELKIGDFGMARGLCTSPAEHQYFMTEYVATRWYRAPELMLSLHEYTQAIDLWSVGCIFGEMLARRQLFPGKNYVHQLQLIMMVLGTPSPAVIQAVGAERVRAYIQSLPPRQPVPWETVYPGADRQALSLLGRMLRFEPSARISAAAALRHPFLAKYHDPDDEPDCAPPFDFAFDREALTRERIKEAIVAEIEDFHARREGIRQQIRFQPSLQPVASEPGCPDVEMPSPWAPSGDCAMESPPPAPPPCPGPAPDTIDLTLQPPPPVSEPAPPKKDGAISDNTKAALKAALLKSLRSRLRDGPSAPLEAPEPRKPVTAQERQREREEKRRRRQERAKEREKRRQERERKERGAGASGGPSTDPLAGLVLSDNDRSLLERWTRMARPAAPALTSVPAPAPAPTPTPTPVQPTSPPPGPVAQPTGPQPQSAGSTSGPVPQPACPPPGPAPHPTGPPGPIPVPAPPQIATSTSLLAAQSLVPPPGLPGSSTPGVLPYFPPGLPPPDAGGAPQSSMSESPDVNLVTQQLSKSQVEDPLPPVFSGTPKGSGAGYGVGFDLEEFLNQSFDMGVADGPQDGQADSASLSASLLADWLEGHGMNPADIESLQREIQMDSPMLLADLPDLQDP
# [30] = biological target: 468 kinases (Homo sapiens, UniProt P06213); settings: INSR; read-out: % Inhibition @ 100 nM
# 468 kinases (Homo sapiens, UniProt P06213), sequence (P06213 28-758 limits assumed): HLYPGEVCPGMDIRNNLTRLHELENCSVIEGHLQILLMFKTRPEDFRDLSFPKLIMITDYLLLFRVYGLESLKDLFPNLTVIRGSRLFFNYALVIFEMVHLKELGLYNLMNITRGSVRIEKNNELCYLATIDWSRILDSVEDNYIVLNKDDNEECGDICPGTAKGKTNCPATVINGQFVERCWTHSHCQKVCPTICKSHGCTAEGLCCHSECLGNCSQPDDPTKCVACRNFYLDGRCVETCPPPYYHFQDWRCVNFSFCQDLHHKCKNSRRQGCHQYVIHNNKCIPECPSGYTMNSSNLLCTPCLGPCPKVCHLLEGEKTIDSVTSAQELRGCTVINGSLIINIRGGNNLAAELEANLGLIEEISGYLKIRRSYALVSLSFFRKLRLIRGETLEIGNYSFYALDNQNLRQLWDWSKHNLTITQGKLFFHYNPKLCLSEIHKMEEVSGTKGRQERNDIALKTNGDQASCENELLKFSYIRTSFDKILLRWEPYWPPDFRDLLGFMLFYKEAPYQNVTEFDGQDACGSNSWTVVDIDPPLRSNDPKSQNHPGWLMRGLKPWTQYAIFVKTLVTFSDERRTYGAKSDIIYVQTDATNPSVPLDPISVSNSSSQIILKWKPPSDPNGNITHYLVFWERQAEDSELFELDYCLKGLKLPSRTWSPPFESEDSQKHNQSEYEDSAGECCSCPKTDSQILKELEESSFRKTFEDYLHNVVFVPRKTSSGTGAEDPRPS
# 468 kinases (Homo sapiens, UniProt P06213), sequence (P06213 763-1382 limits assumed): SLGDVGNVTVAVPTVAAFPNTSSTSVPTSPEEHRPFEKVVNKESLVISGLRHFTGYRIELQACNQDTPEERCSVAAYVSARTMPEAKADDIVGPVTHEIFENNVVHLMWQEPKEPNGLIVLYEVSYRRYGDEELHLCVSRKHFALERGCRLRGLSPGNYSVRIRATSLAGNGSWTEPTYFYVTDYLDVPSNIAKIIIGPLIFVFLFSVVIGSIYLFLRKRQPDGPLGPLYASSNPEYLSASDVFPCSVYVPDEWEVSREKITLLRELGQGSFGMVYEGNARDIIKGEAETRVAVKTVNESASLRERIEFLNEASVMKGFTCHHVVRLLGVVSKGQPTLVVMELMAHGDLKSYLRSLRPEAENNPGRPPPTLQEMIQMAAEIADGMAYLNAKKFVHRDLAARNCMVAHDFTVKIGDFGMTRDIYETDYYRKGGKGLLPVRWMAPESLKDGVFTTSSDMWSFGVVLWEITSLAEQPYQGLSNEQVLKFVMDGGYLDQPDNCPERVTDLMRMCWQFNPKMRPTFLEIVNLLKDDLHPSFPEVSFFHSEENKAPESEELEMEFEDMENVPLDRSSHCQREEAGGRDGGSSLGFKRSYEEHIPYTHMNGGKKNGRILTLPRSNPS
# [31] = biological target: 468 kinases (Homo sapiens, UniProt P52564); settings: MEK6; read-out: % Inhibition @ 100 nM
# [32] = biological target: 468 kinases (Homo sapiens, UniProt P36894); settings: BMPR1A; read-out: % Inhibition @ 100 nM
# 468 kinases (Homo sapiens, UniProt P36894), sequence (P36894 24-532 limits assumed): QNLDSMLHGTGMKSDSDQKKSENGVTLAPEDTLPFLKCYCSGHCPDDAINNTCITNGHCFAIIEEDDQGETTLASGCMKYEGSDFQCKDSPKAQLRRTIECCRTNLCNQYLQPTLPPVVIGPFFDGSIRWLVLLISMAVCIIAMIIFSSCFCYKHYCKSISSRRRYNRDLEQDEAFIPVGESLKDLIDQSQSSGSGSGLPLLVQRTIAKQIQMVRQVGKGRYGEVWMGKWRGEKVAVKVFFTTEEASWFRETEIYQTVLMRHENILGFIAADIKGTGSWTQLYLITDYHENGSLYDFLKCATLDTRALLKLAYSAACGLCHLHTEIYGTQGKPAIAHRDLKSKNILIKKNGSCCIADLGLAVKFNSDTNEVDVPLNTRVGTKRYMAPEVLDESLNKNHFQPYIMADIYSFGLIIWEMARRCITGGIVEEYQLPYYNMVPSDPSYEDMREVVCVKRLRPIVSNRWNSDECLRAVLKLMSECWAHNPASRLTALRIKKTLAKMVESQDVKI
# [33] = biological target: 468 kinases (Homo sapiens, UniProt Q07002); settings: PCTK3; read-out: % Inhibition @ 100 nM
SMILES,inhibition at 0.1 µM [1] [%],inhibition at 0.1 µM [2] [%],inhibition at 0.1 µM [3] [%],inhibition at 0.1 µM [4] [%],inhibition at 0.1 µM [5] [%],inhibition at 0.1 µM [6] [%],inhibition at 0.1 µM [7] [%],inhibition at 0.1 µM [8] [%],inhibition at 0.1 µM [9] [%],inhibition at 0.1 µM [10] [%],inhibition at 0.1 µM [11] [%],inhibition at 0.1 µM [12] [%],inhibition at 0.1 µM [13] [%],inhibition at 0.1 µM [14] [%],inhibition at 0.1 µM [15] [%],inhibition at 0.1 µM [16] [%],inhibition at 0.1 µM [17] [%],inhibition at 0.1 µM [18] [%],inhibition at 0.1 µM [19] [%],inhibition at 0.1 µM [20] [%],further results
"CCN(CC)CCNC(=O)c1c(C)[nH]c(/C=C2\C(=O)Nc3ccc(CCO)cc32)c1C [Compound No. 10, (Z)—N-(2-(Diethylamino)ethyl)-5-((5-(2-hydroxyethyl)-2-oxoindolin-3-ylidene)methyl)-2,4-dimethyl-1H-pyrrole-3-carboxamide]",21,22,0,22,0,19,12,10,9,55,4,96.6,9,19,2,0,1,0,11,0,inhibition at 0.1 µM [21]: 0%; inhibition at 0.1 µM [22]: 98%; inhibition at 0.1 µM [23]: 15%; inhibition at 0.1 µM [24]: 56%; inhibition at 0.1 µM [25]: 59%; inhibition at 0.1 µM [26]: 0%; inhibition at 0.1 µM [27]: 0%; inhibition at 0.1 µM [28]: 0%; inhibition at 0.1 µM [29]: 6%; inhibition at 0.1 µM [30]: 0%; inhibition at 0.1 µM [31]: 11%; inhibition at 0.1 µM [32]: 0%; inhibition at 0.1 µM [33]: 12%
"CCN(CC)CCNC(=O)c1c(C)[nH]c(/C=C2\C(=O)Nc3ccc(CCC(N)=O)cc32)c1C [Compound No. 16, (Z)-5-((5-(3-Amino-3-oxopropyl)-2-oxoindolin-3-ylidene)methyl)-N-(2-(diethylamino)ethyl)-2,4-dimethyl-1H-pyrrole-3-carboxamide]",95.3,0,6,16,5,4,14,5,35,60,16,95.2,21,18,0,0,19,0,3,0,inhibition at 0.1 µM [21]: 17%; inhibition at 0.1 µM [22]: 91.1%; inhibition at 0.1 µM [23]: 24%; inhibition at 0.1 µM [24]: 41%; inhibition at 0.1 µM [25]: 68%; inhibition at 0.1 µM [26]: 24%; inhibition at 0.1 µM [27]: 17%; inhibition at 0.1 µM [28]: 0%; inhibition at 0.1 µM [29]: 100%; inhibition at 0.1 µM [30]: 25%; inhibition at 0.1 µM [31]: 25%; inhibition at 0.1 µM [32]: 0%; inhibition at 0.1 µM [33]: 9%
